Assay results: ChEMBL document CHEMBL3045654, “Mechanisms of Low Susceptibility to Imidacloprid in a Laboratory Strain of the Small Brown Planthopper, Laodelphax striatellus FALLEN” (J Pestic Sci, 1997)

What was measured:
Laodelphax striatellus [1] = assay: Insecticidal activity againstLaodelphax striatella S (small brown planthopper) treated topically after 24 hr; assay type: functional; details: topical
Laodelphax striatellus [2] = assay: Insecticidal activity againstLaodelphax striatella N (small brown planthopper) treated topically after 24 hr in presence of 40 ng/insect of piperonylbutoxide; assay type: functional; details: topical
Laodelphax striatellus [3] = assay: Insecticidal activity againstLaodelphax striatella N (small brown planthopper) treated topically after 24 hr; assay type: functional; details: topical
Laodelphax striatellus [4] = assay: Insecticidal activity againstLaodelphax striatella N (small brown planthopper) treated topically after 24 hr in presence of 2 ng/insect of tributylphosportrithioate; assay type: functional; details: topical
Laodelphax striatellus [5] = assay: Drug penetration inLaodelphax striatella N (small brown planthopper) at 0.1 ng/insect treated topically after 1 hr; assay type: ADME, organism-based; details: in vivo, topical_or_ocular
Laodelphax striatellus [6] = assay: Drug penetration inLaodelphax striatella S (small brown planthopper) at 0.1 ng/insect treated topically after 1 hr; assay type: ADME, organism-based; details: in vivo, topical_or_ocular
Laodelphax striatellus [7] = assay: Insecticidal activity againstLaodelphax striatella N (small brown planthopper) treated topically after 24 hr in presence of 20 ng/insect of […]; assay type: functional; details: topical

O=[N+]([O-])NC1=NCCN1Cc1ccc(Cl)nc1 [IMIDACLOPRID] showed an LD50 (Laodelphax striatellus [1]) of 0.12 mg/kg, an LD50 (Laodelphax striatellus [2]) of 1.11 mg/kg and an LD50 (Laodelphax striatellus [3]) of 2.17 mg/kg. The LD50 (Laodelphax striatellus [4]) was 1.06 mg/kg, the Drug uptake (Laodelphax striatellus [5]) was 20% and the Drug uptake (Laodelphax striatellus [6]) was 20%. For the same molecule, the LD50 (Laodelphax striatellus [7]) was 1.19 mg/kg.
